# Data taken from ChEMBL document CHEMBL4765419, “Design, synthesis and bioactivity evaluation of novel arylalkene-amide derivatives as dual-target antifungal inhibitors” (Eur J Med Chem, 2020).
# Calls of active or inactive are those of the source. The rule behind the calls is not given here.
# How the values were obtained:
# [1] = tested on: Pichia kudriavzevii; test: Antifungal activity against Candida krusei assessed as inhibition of microbial growth by two fold broth microdilution method; assay type: functional
# [2] = tested on: Aspergillus fumigatus; test: Antifungal activity against Aspergillus fumigatus assessed as inhibition of microbial growth by two fold broth microdilution method; assay type: functional
# [3] = tested on: Candida tropicalis; test: Antifungal activity against Candida tropicalis assessed as inhibition of microbial growth by two fold broth microdilution method; assay type: functional
# [4] = tested on: Candida albicans; test: Antifungal activity against Candida albicans assessed as inhibition of microbial growth by two fold broth microdilution method; assay type: functional
# [5] = tested on: Nakaseomyces glabratus; test: Antifungal activity against Candida glabrata assessed as inhibition of microbial growth by two fold broth microdilution method; assay type: functional
# [6] = tested on: Candida albicans; test: Antifungal activity against fluconazole-resistant Candida albicans 632 assessed as inhibition of microbial growth by two fold broth microdilution method; assay type: functional
# [7] = tested on: Candida albicans; test: Antifungal activity against fluconazole-resistant Candida albicans 904 assessed as inhibition of microbial growth by two fold broth microdilution method; assay type: functional
# [8] = tested on: Candida albicans; test: Antifungal activity against Candida albicans ATCC SC5314 assessed as decrease in fungal cell density by polarizing microscopy; assay type: functional, organism-based
# [9] = tested on: Candida albicans; test: Antifungal activity against fluconazole-resistant Candida albicans 901 assessed as inhibition of microbial growth by two fold broth microdilution method; assay type: functional
# [10] = tested on: Candida albicans; test: Antifungal activity against fluconazole-resistant Candida albicans 17# assessed as inhibition of microbial growth by two fold broth microdilution method; assay type: functional
# [11] = tested on: Candida albicans; test: Antifungal activity against fluconazole-resistant Candida albicans CaR assessed as inhibition of microbial growth by two fold broth microdilution method; assay type: functional
# [12] = Stability in human plasma incubated for 120 mins; assay type: ADME, cell-free; conditions: read-out: Stabilty
# [13] = tested on: Candida albicans; test: In vivo antifungal activity against Candida albicans infected in mouse assessed as reduction in tissue infection injected via abdomen for 7 days by H and E staining based histological analysis; assay type: functional, organism-based; conditions: time 7.0 day
# [14] = tested on: Candida albicans; test: In vivo antifungal activity against Candida albicans infected in mouse assessed as uniform cell distribution injected via abdomen for 7 days by H and E staining based histological analysis; assay type: functional, organism-based; conditions: time 7.0 day
# [15] = Toxicity in mouse infected with Candida albicans assessed as change in spleen morphology administered via abdomen for 7 days by H and E staining based histological analysis; conditions: in vivo, ip, 168 h, time 7 day
# [16] = tested on: Candida albicans; test: In vivo antifungal activity against Candida albicans infected in mouse assessed as disappearance of infected positions injected via abdomen for 7 days by H and E staining based histological analysis; assay type: functional, organism-based; conditions: time 7.0 day
# [17] = Renal toxicity in mouse infected with Candida albicans assessed as effect on blood urea nitrogen level administered via abdomen for 7 days (reference value: 6.7 +/-0.3 mmol/L); conditions: in vivo, ip, 168 h, time 7 day
# [18] = tested on: Candida albicans SC5314; test: Inhibition of SE/CYP51 in Candida albicans ATCC SC5314 assessed as unidentified sterol level at 4 ug/ml incubated for 16 hrs by LC/MS analysis (reference value: 7.03 %); set-up: scale not given: the % may be the effect or the level left; conditions: dose 4.0 µg/ml
# [19] = Toxicity in mouse infected with Candida albicans assessed as change in kidney morphology administered via abdomen for 7 days by H and E staining based histological analysis; conditions: in vivo, ip, 168 h, time 7 day
# [20] = Stability in human plasma incubated for 60 mins; assay type: ADME, cell-free; conditions: read-out: Stabilty
# [21] = tested on: Candida albicans SC5314; test: Inhibition of SE/CYP51 in Candida albicans ATCC SC5314 assessed as eburicol level at 4 ug/ml incubated for 16 hrs by LC/MS analysis (reference value: 4.67 %); set-up: scale not given: the % may be the effect or the level left; conditions: dose 4.0 µg/ml
# [22] = tested on: Candida albicans SC5314; test: Inhibition of SE/CYP51 in Candida albicans ATCC SC5314 assessed as ergosterol level at 4 ug/ml incubated for 16 hrs by LC/MS analysis (reference value: 79.43 %); set-up: scale not given: the % may be the effect or the level left; conditions: dose 4.0 µg/ml
# [23] = Toxicity in mouse infected with Candida albicans assessed as change in body weight administered via abdomen for 7 days; conditions: in vivo, ip, 168 h, time 7 day
# [24] = tested on: Candida albicans SC5314; test: Inhibition of SE/CYP51 in Candida albicans ATCC SC5314 assessed as lanosterol level at 4 ug/ml incubated for 16 hrs by LC/MS analysis (reference value: 6.62 %); set-up: scale not given: the % may be the effect or the level left; conditions: dose 4.0 µg/ml
# [25] = tested on: Candida albicans; test: In vivo antifungal activity against Candida albicans infected in mouse assessed as disappearance of cell nuclear aggregation injected via abdomen for 7 days by H and E staining based histological analysis; assay type: functional, organism-based; conditions: time 7.0 day
# [26] = Hepatotoxicity in mouse infected with Candida albicans assessed as aspartate aminotransferase level in plasma administered via abdomen for 7 days (reference value: 109.4 +/-4.8 IU/L); assay type: toxicity; conditions: ip, 168 h, time 7 day
# [27] = Toxicity in mouse infected with Candida albicans assessed as change in heart morphology administered via abdomen for 7 days by H and E staining based histological analysis; conditions: in vivo, ip, 168 h, time 7 day
# [28] = Hepatotoxicity in mouse infected with Candida albicans assessed as effect on alanine aminotransferase level in plasma administered via abdomen for 7 days (reference value: 102 +/-9.2 IU/L); assay type: toxicity; conditions: ip, 168 h, time 7 day
# [29] = tested on: Candida albicans SC5314; test: Inhibition of SE/CYP51 in Candida albicans ATCC SC5314 assessed as squalene level at 4 ug/ml incubated for 16 hrs by LC/MS analysis (reference value: 2.25 %); set-up: scale not given: the % may be the effect or the level left; conditions: dose 4.0 µg/ml
# [30] = Toxicity in mouse infected with Candida albicans assessed as change in lung morphology administered via abdomen for 7 days by H and E staining based histological analysis; conditions: in vivo, ip, 168 h, time 7 day
# [31] = Toxicity in mouse infected with Candida albicans assessed as change in liver morphology administered via abdomen for 7 days by H and E staining based histological analysis; conditions: in vivo, ip, 168 h, time 7 day
structure (smiles),measurement,setting,value
O=C(/C=C/c1cccc2ccccc12)NCC(=O)NCc1ccncc1,MIC,[1],0.5 µg/mL
same,MIC,[2],4 µg/mL
same,MIC,[3],0.25 µg/mL
same,MIC,[4],0.25 µg/mL
same,MIC,[5],0.25 µg/mL
CN(C/C=C/c1ccccc1)Cc1cccc2ccccc12 [NAFTIFINE],MIC,[6],8 µg/mL
same,MIC,[7],8 µg/mL
same,MIC,[1],0.5 µg/mL
same,MIC,[2],4 µg/mL
same,Activity,[8],Active
same,MIC,[3],2 µg/mL
same,MIC,[4],0.5 µg/mL
same,MIC,[5],1 µg/mL
same,MIC,[9],> 16 µg/mL
same,MIC,[10],8 µg/mL
same,MIC,[11],> 16 µg/mL
O=C(/C=C/c1cccc2ccccc12)NC(Cn1ccnc1)C(=O)NCc1ccccc1 (configuration not stated),MIC,[1],2 µg/mL
same,MIC,[2],> 16 µg/mL
same,MIC,[3],0.5 µg/mL
same,MIC,[4],0.5 µg/mL
same,MIC,[5],0.5 µg/mL
O=C(NCc1cccnc1)C(=O)N/N=C/c1ccc2ccccc2c1,MIC,[1],0.5 µg/mL
same,MIC,[2],8 µg/mL
same,MIC,[3],0.25 µg/mL
same,MIC,[4],1 µg/mL
same,MIC,[5],0.25 µg/mL
CN(CC(=O)NCc1cccnc1)C(=O)/C=C/c1ccc2ccccc2c1,MIC,[1],0.5 µg/mL
same,MIC,[2],> 16 µg/mL
same,MIC,[3],1 µg/mL
same,MIC,[4],0.5 µg/mL
same,MIC,[5],1 µg/mL
O=C(/C=C/c1cccc2ccccc12)NC(Cn1ccnc1)C(=O)Nc1ccccc1 (configuration not stated),remaining at 2 h,[12],84.1%
same,MIC,[6],8 µg/mL
same,MIC,[7],> 16 µg/mL
same,Activity,[13],Active
same,MIC,[1],0.25 µg/mL
same,MIC,[2],4 µg/mL
same,Activity,[8],Active
same,Activity,[14],Active
same,Activity,[15],Non-Toxic
same,MIC,[3],0.25 µg/mL
same,Activity,[16],Active
same,Activity,[17],6.9 mmol/L
same,Activity,[18],5.46%
same,Activity,[19],Non-Toxic
same,remaining at 1 h,[20],89.7%
same,Activity,[21],40.1%
same,Activity,[22],10.7%
same,MIC,[4],0.125 µg/mL
same,Activity,[23],Non-Toxic
same,Activity,[24],14.5%
same,MIC,[5],0.125 µg/mL
same,Activity,[25],Active
same,MIC,[9],8 µg/mL
same,MIC,[10],4 µg/mL
same,Activity,[26],101.5 IU/L
same,MIC,[11],8 µg/mL
same,Activity,[27],Non-Toxic
same,Activity,[28],105 IU/L
same,Activity,[29],29.1%
same,Activity,[30],Non-Toxic
same,Activity,[31],Non-Toxic
O=C(/C=C/c1ccc2c(c1)OCCO2)NC(Cn1ccnc1)C(=O)Nc1ccccc1 (configuration not stated),MIC,[1],1 µg/mL
same,MIC,[2],> 16 µg/mL
same,MIC,[3],0.25 µg/mL
same,MIC,[4],0.25 µg/mL
same,MIC,[5],0.5 µg/mL
O=C(/C=C/c1ccc2ccccc2c1)NCC(=O)NCc1cccnc1,MIC,[1],2 µg/mL
same,MIC,[2],> 16 µg/mL
same,MIC,[3],2 µg/mL
same,MIC,[4],0.5 µg/mL
same,MIC,[5],0.5 µg/mL
CN(CC(=O)NCc1ccncc1)C(=O)/C=C/c1cccc2ccccc12,MIC,[1],0.5 µg/mL
same,MIC,[2],4 µg/mL
same,MIC,[3],0.25 µg/mL
same,MIC,[4],0.125 µg/mL
same,MIC,[5],0.25 µg/mL
CN(CC(=O)NCc1ccncc1)C(=O)/C=C/c1ccc2c(c1)OCCO2,MIC,[1],1 µg/mL
same,MIC,[2],> 16 µg/mL
same,MIC,[3],0.5 µg/mL
same,MIC,[4],0.5 µg/mL
same,MIC,[5],1 µg/mL
O=C(/C=C/c1ccc2ccccc2c1)NCC(=O)NCc1ccncc1,MIC,[1],1 µg/mL
same,MIC,[2],> 16 µg/mL
same,MIC,[3],0.25 µg/mL
same,MIC,[4],0.25 µg/mL
same,MIC,[5],0.5 µg/mL
O=C(NCc1cccnc1)C(=O)N/N=C/c1ccc2c(c1)OCCO2,MIC,[1],2 µg/mL
same,MIC,[2],> 16 µg/mL
same,MIC,[3],1 µg/mL
same,MIC,[4],0.5 µg/mL
same,MIC,[5],0.5 µg/mL
